Read-outs that look alike come from different tables or passages of the source.
System: AAT
Conditions: cynomolgus macaque
Description: MLP delivery polymer and Duplex Pair SEQ ID NO: 5/6 (AAT RNAi agent) were made and combined in a pharmaceutically acceptable buffer. On day 1, cynomolgus macaque (Macaca fascicularis) primates (male and female, 3 to 9 kg) were co-injected with MLP delivery polymer and Duplex Pair SEQ ID NO: 5/6 at different dose combinations. The dose combinations injected were: 2.0 mg/kg MLP delivery polymer+4.0 AAT RNAi agent (n=3), 3 mg/kg MLP delivery polymer+1.5 mg/kg AAT RNAi agent (n=2), 3.0 mg/kg MLP delivery polymer+3.0 mg/kg AAT RNAi agent (n=3), 3.0 mg/kg MLP delivery polymer+6.0 mg/kg AAT RNAi agent (n=2), 6.0 mg/kg MLP delivery polymer+12 mg/kg AAT RNAi trigger (n=3) ([…] conversion factor used to determine RNAi agent concentration) and 12 mg/kg MLP delivery polymer+6.0 mg/kg AAT RNAi agent (n=12). For each injection the MLP delivery polymer+AAT RNAi agent (2 ml/kg) was injected into the saphenous vein using a 22 to 25 gauge intravenous catheter. At the indicated time points, blood samples were drawn and analyzed for AAT and toxicity markers. Blood was collected from the femoral vein and primates were fasted overnight before all blood collections. Blood tests for blood urea nitrogen (BUN), alanine transaminase (ALT), aspartate aminotransferase (AST), and creatinine were performed on an automated chemistry analyzer at Meriter laboratories or BASi. AAT levels were determined on a Cobas Integra 400 (Roche Diagnostics) according to the manufacturer's recommendations.
Cynomolgus macaque primates were given five doses of AAT RNAi trigger+MLP delivery polymer at six week intervals. Each dose contained MLP delivery polymer and Duplex Pair SEQ ID NO: 5/6 (AAT RNAi agent) at a 1:2 weight to weight ratio of the MLP to RNAi agent. The first injection was on day 1. The dose combinations injected were: 2.0 mg/kg MLP delivery polymer+4.0 AAT RNAi agent (n=2) and 3 mg/kg MLP delivery polymer+6 mg/kg AAT RNAi agent (n=2). Blood was collected at intervals throughout the study and AAT levels were measured from the serum as described.

Duplex Pair SEQ ID NO: 5/6: double-stranded AAT RNAi agent: modified antisense strand SEQ ID NO: 5 annealed to Chol-TEG sense strand SEQ ID NO: 6 (antisense TGGAACUUGGUGAUGAUAUTT; sense UAUAUAUCAUCACCAAGUUCCAT; Chol-TEG on sense strand; chemical modifications; antisense strand of dsRNA; modified_base 7 /mod_base = “2′-3′ seco corresponding nucleotide”; modified_base 2,4,6,8,10,12,14,16,18 /mod_base = “2′-deoxy-2′-fluoro corresponding nucleoside”; modified_base 3,5,9,11,13,15,17,19 /mod_base = “2′-O-methyl corresponding nucleoside”; modified_base 21 /mod_base = “5′-phosphorothioate corresponding nucleotide”; sense strand of dsRNA; modified_base 2 /mod_base = “2′-hydroxy corresponding nucleoside”; modified_base 4,6,8,10,12,14,16,18,20,22 /mod_base = “2′-deoxy-2′-fluoro corresponding nucleoside”; …)
Serum AAT levels measured six weeks after each treatment (2.0 mg/kg MLP delivery polymer + 4.0 AAT RNAi agent, five doses at six week intervals): rebounded less with each additional treatment | Serum AAT reduced (2.0 mg/kg MLP delivery polymer + 4.0 AAT RNAi agent, six week intervals, following the fourth treatment): 85% | Serum AAT reduced (2.0 mg/kg MLP delivery polymer + 4.0 AAT RNAi agent, following the first treatment): 80% | knockdown of AAT (all dose combinations with MLP delivery polymer): Significant knockdown | Percent AAT Knockdown in NHPs (co-injection MLP 2.0 mg/kg + SEQ ID 5/6 4.0 mg/kg on day 1, Day 2): 11% | Percent AAT Knockdown in NHPs (co-injection MLP 2.0 mg/kg + SEQ ID 5/6 4.0 mg/kg on day 1, Day 3): 27% | Percent AAT Knockdown in NHPs (co-injection MLP 2.0 mg/kg + SEQ ID 5/6 4.0 mg/kg on day 1, Day 8): 63% | Percent AAT Knockdown in NHPs (co-injection MLP 2.0 mg/kg + SEQ ID 5/6 4.0 mg/kg on day 1, Day 11): 73% | Percent AAT Knockdown in NHPs (co-injection MLP 2.0 mg/kg + SEQ ID 5/6 4.0 mg/kg on day 1, Day 15): 81% | Percent AAT Knockdown in NHPs (co-injection MLP 2.0 mg/kg + SEQ ID 5/6 4.0 mg/kg on day 1, Day 22): 85% | Percent AAT Knockdown in NHPs (co-injection MLP 2.0 mg/kg + SEQ ID 5/6 4.0 mg/kg on day 1, Day 29): 80% | Percent AAT Knockdown in NHPs (co-injection MLP 2.0 mg/kg + SEQ ID 5/6 4.0 mg/kg on day 1, Pretest): 0% | Percent AAT Knockdown in NHPs (co-injection MLP 3.0 mg/kg + SEQ ID 5/6 1.5 mg/kg on day 1, Day 2): 16% | Percent AAT Knockdown in NHPs (co-injection MLP 3.0 mg/kg + SEQ ID 5/6 1.5 mg/kg on day 1, Day 3): 30% | Percent AAT Knockdown in NHPs (co-injection MLP 3.0 mg/kg + SEQ ID 5/6 1.5 mg/kg on day 1, Day 8): 59% | Percent AAT Knockdown in NHPs (co-injection MLP 3.0 mg/kg + SEQ ID 5/6 1.5 mg/kg on day 1, Day 11): 70% | Percent AAT Knockdown in NHPs (co-injection MLP 3.0 mg/kg + SEQ ID 5/6 1.5 mg/kg on day 1, Day 15): 74% | Percent AAT Knockdown in NHPs (co-injection MLP 3.0 mg/kg + SEQ ID 5/6 1.5 mg/kg on day 1, Day 22): 76% | Percent AAT Knockdown in NHPs (co-injection MLP 3.0 mg/kg + SEQ ID 5/6 1.5 mg/kg on day 1, Day 29): 74% | Percent AAT Knockdown in NHPs (co-injection MLP 3.0 mg/kg + SEQ ID 5/6 1.5 mg/kg on day 1, Day 36): 70% | Percent AAT Knockdown in NHPs (co-injection MLP 3.0 mg/kg + SEQ ID 5/6 1.5 mg/kg on day 1, Day 43): 63% | Percent AAT Knockdown in NHPs (co-injection MLP 3.0 mg/kg + SEQ ID 5/6 1.5 mg/kg on day 1, Day 50): 51% | Percent AAT Knockdown in NHPs (co-injection MLP 3.0 mg/kg + SEQ ID 5/6 1.5 mg/kg on day 1, Pretest): 0% | Percent AAT Knockdown in NHPs (co-injection MLP 3.0 mg/kg + SEQ ID 5/6 3.0 mg/kg on day 1, Day 2): 15% | Percent AAT Knockdown in NHPs (co-injection MLP 3.0 mg/kg + SEQ ID 5/6 3.0 mg/kg on day 1, Day 3): 29% | Percent AAT Knockdown in NHPs (co-injection MLP 3.0 mg/kg + SEQ ID 5/6 3.0 mg/kg on day 1, Day 8): 63% | Percent AAT Knockdown in NHPs (co-injection MLP 3.0 mg/kg + SEQ ID 5/6 3.0 mg/kg on day 1, Day 11): 74% | Percent AAT Knockdown in NHPs (co-injection MLP 3.0 mg/kg + SEQ ID 5/6 3.0 mg/kg on day 1, Day 15): 82% | Percent AAT Knockdown in NHPs (co-injection MLP 3.0 mg/kg + SEQ ID 5/6 3.0 mg/kg on day 1, Day 22): 88% | Percent AAT Knockdown in NHPs (co-injection MLP 3.0 mg/kg + SEQ ID 5/6 3.0 mg/kg on day 1, Day 29): 85% | Percent AAT Knockdown in NHPs (co-injection MLP 3.0 mg/kg + SEQ ID 5/6 3.0 mg/kg on day 1, Pretest): 0% | Percent AAT Knockdown in NHPs (co-injection MLP 3.0 mg/kg + SEQ ID 5/6 6.0 mg/kg on day 1, Day 2): 10% | Percent AAT Knockdown in NHPs (co-injection MLP 3.0 mg/kg + SEQ ID 5/6 6.0 mg/kg on day 1, Day 3): 25% | Percent AAT Knockdown in NHPs (co-injection MLP 3.0 mg/kg + SEQ ID 5/6 6.0 mg/kg on day 1, Day 8): 63% | Percent AAT Knockdown in NHPs (co-injection MLP 3.0 mg/kg + SEQ ID 5/6 6.0 mg/kg on day 1, Day 11): 74% | Percent AAT Knockdown in NHPs (co-injection MLP 3.0 mg/kg + SEQ ID 5/6 6.0 mg/kg on day 1, Day 15): 82% | Percent AAT Knockdown in NHPs (co-injection MLP 3.0 mg/kg + SEQ ID 5/6 6.0 mg/kg on day 1, Pretest): 0% | Percent AAT Knockdown in NHPs (co-injection MLP 6.0 mg/kg + SEQ ID 5/6 12.0 mg/kg on day 1, Day 2): 18% | Percent AAT Knockdown in NHPs (co-injection MLP 6.0 mg/kg + SEQ ID 5/6 12.0 mg/kg on day 1, Day 3): 30% | Percent AAT Knockdown in NHPs (co-injection MLP 6.0 mg/kg + SEQ ID 5/6 12.0 mg/kg on day 1, Day 8): 61% | Percent AAT Knockdown in NHPs (co-injection MLP 6.0 mg/kg + SEQ ID 5/6 12.0 mg/kg on day 1, Pretest): 0% | Percent AAT Knockdown in NHPs (co-injection MLP 12.0 mg/kg + SEQ ID 5/6 6.0 mg/kg on day 1, Day 2): 3% | Percent AAT Knockdown in NHPs (co-injection MLP 12.0 mg/kg + SEQ ID 5/6 6.0 mg/kg on day 1, Day 3): 19% | Percent AAT Knockdown in NHPs (co-injection MLP 12.0 mg/kg + SEQ ID 5/6 6.0 mg/kg on day 1, Day 8): 60% | Percent AAT Knockdown in NHPs (co-injection MLP 12.0 mg/kg + SEQ ID 5/6 6.0 mg/kg on day 1, Day 11): 84% | Percent AAT Knockdown in NHPs (co-injection MLP 12.0 mg/kg + SEQ ID 5/6 6.0 mg/kg on day 1, Day 15): 88% | Percent AAT Knockdown in NHPs (co-injection MLP 12.0 mg/kg + SEQ ID 5/6 6.0 mg/kg on day 1, Day 26): 91% | Percent AAT Knockdown in NHPs (co-injection MLP 12.0 mg/kg + SEQ ID 5/6 6.0 mg/kg on day 1, Day 33): 86% | Percent AAT Knockdown in NHPs (co-injection MLP 12.0 mg/kg + SEQ ID 5/6 6.0 mg/kg on day 1, Day 47): 76% | Percent AAT Knockdown in NHPs (co-injection MLP 12.0 mg/kg + SEQ ID 5/6 6.0 mg/kg on day 1, Pretest): 0% | serum AAT levels reduced (repeat dosing at six week intervals, 3 mg/kg MLP delivery polymer + 6 mg/kg, from two to thirty weeks after the first treatment): 80-90%

Source: patent publication US20190071670A1, “Methods Of Treatment For Alpha-1 Antitrypsin Deficiency” (Arrowhead Pharmaceuticals, Inc., priority 2016, published 2019)
